How the values were obtained:
HCT-116 = test: Cytotoxicity against human HCT116 cells after 96 hrs by MTT assay; format: functional, cell-based; conditions: HCT-116, 96 h
HT-29 = test: Cytotoxicity against human HT-29 cells after 96 hrs by MTT assay; format: functional, cell-based; conditions: HT-29, 96 h

Structure (SMILES)	IC50 (HCT-116) [µg/mL]	IC50 (HT-29) [µg/mL]
CC(=O)N[C@H]1[C@H](O[C@H]2CC[C@]3(C)[C@H]4CC=C5[C@@H]6CC(C)(C)CC[C@]6(C(=O)O[C@@H]6O[C@H](CO)[C@@H](O)[C@H](O)[C@H]6O[C@@H]6OC[C@](O)(CO)[C@H]6O)[C@H](O)[C@H](O)[C@@]5(C)[C@]4(C)CC[C@H]3C2(C)C)O[C@H](CO[C@@H]2OC[C@H](O)[C@H](O)[C@H]2O)[C@@H](O)[C@@H]1O[C@@H]1OC[C@@H](O)[C@H](O)[C@H]1O [PURSAETHOSIDE C]	> 100	> 100
CC(=O)N[C@H]1[C@H](O[C@H]2CC[C@]3(C)[C@H]4CC=C5[C@@H]6CC(C)(C)CC[C@]6(C(=O)O[C@@H]6O[C@H](CO)[C@@H](O)[C@H](O)[C@H]6O[C@@H]6OC[C@](O)(CO)[C@H]6O)[C@H](O)C[C@@]5(C)[C@]4(C)CC[C@H]3C2(C)C)O[C@H](CO[C@@H]2OC[C@H](O)[C@H](O)[C@H]2O)[C@@H](O)[C@@H]1O[C@@H]1OC[C@@H](O)[C@H](O)[C@H]1O [PURSAETHOSIDE B]	> 100	> 100
